This note sets out measurements from patent US20210403435A1, “HERBICIDAL COMPOUNDS” (SYNGENTA CROP PROTECTION AG, priority 2018, published 2021).

Test in all cases: Post-emergence efficacy, glasshouse, evaluated after 13 days
What all share (type): in vivo

Experiment [1] deals with Chenopodium album (CHEAL). The settings on record: for pest or weed control at 500 g/ha: Chenopodium album, 312 h, read-out: Control of weed species CHEAL (100=total damage to plant; 0=no damage to plant). The protocol:
(§1) Seeds of a variety of test species were sown in standard soil in pots. After cultivation for 14 days (post-emergence) under controlled conditions in a glasshouse (at 24/16° C., day/night; 14 hours light; 65% humidity), the plants were sprayed with an aqueous spray solution derived from the dissolution of the technical active ingredient formula (I) in a small amount of acetone and a special solvent and emulsifier mixture referred to as IF50 (11.12% Emulsogen EL360 TM+44.44% N-methylpyrrolidone+44.44% Dowanol DPM glycol ether), to create a 50 g/l solution which was then diluted to required concentration using 0.25% or 1% Empicol ESC70 (Sodium lauryl ether sulphate)+1% ammonium sulphate as diluent.
(§2) The test plants were then grown in a glasshouse under controlled conditions (at 24/16° C., day/night; 14 hours light; 65% humidity) and watered twice daily. After 13 days the test was evaluated (100=total damage to plant; 0=no damage to plant).
(§3) Ipomoea hederacea (IPOHE), Euphorbia heterophylla (EPHHL), Chenopodium album (CHEAL), Amaranthus palmeri (AMAPA), Lolium perenne (LOLPE), Digitaria sanguinalis (DIGSA), Eleusine indica (ELEIN), Echinochloa crus-galli (ECHCG), Setaria faberi (SETFA)

The test system of another experiment is Setaria faberi (SETFA). The settings on record: for pest or weed control at 500 g/ha: Setaria faberi, 312 h, read-out: Control of weed species SETFA (100=total damage to plant; 0=no damage to plant). The procedure:
as §1, §2, §3

The next experiment relates to Lolium perenne (LOLPE). The settings on record: for pest or weed control at 500 g/ha: Lolium perenne, 312 h, read-out: Control of weed species LOLPE (100=total damage to plant; 0=no damage to plant). The procedure: as §1, §2, §3
In experiment [2] the test system is Euphorbia heterophylla (EPHHL). To be noted: Euphorbia heterophylla, 312 h, read-out: Control of weed species EPHHL (100=total damage to plant; 0=no damage to plant). The procedure:
as §1, §2, §3

For experiment [3], the system named is Ipomoea hederacea (IPOHE). The settings on record: for pest or weed control at 500 g/ha: Ipomoea hederacea, 312 h, read-out: Control of weed species IPOHE (100=total damage to plant; 0=no damage to plant). The protocol: as §1, §2, §3
Experiment [4] deals with Amaranthus palmeri (AMAPA). The settings on record: for pest or weed control at 500 g/ha: Amaranthus palmeri, 312 h, read-out: Control of weed species AMAPA (100=total damage to plant; 0=no damage to plant). The procedure: as §1, §2, §3
For experiment [5], the system named is Echinochloa crus-galli (ECHCG). To be noted: for pest or weed control at 500 g/ha: Echinochloa crus-galli, 312 h, read-out: Control of weed species ECHCG (100=total damage to plant; 0=no damage to plant). The procedure:
as §1, §2, §3

For experiment [6], the system named is Digitaria sanguinalis (DIGSA). To be noted: post-emergence application, 500 g/Ha, evaluated after 13 days; for pest or weed control at 500 g/ha: Digitaria sanguinalis, 312 h, read-out: Control of weed species DIGSA (100=total damage to plant; 0=no damage to plant). The procedure: as §1, §2, §3
In a further experiment the test system is Eleusine indica (ELEIN). The settings on record: for pest or weed control at 500 g/ha: Eleusine indica, 312 h, read-out: Control of weed species ELEIN (100=total damage to plant; 0=no damage to plant). The procedure: as §1, §2, §3
[7] abbreviates: post-emergence application, 500 g/Ha, evaluated after 13 days.

SMILES strings stand for the structures. Like-named read-outs stand apart in the source and are kept apart here.

In the case of `C#CC(C)NC(=O)c1cc[n+](CCC(=O)O)nc1` (centres unmarked) [Compound A78], the pest or weed control at 500 g/ha in experiment [1] (setting [7]) was 100%; in the experiment with Setaria faberi (SETFA) (setting [7]) it was 100%; in the experiment with Lolium perenne (LOLPE) (setting [7]), 80%; in [2] (setting [7]), 70%; in [3] (setting [7]), 90%; in experiment [4] (setting [7]), 100%.

Take `CNC(=O)c1cc[n+](CCS(=O)(=O)[O-])nc1C` [Compound A56]: in [1] (setting [7]), the “Control of weed species CHEAL (100=total damage to plant; 0=no damage to plant)” value is reported as 90. Further, the “Control of weed species SETFA (100=total damage to plant; 0=no damage to plant)” value in the experiment with Setaria faberi (SETFA) (setting [7]) is 60. The “Control of weed species ECHCG (100=total damage to plant; 0=no damage to plant)” value in [5] (setting [7]) is on record as 90. In addition, the “Control of weed species LOLPE (100=total damage to plant; 0=no damage to plant)” value in the experiment on Lolium perenne (LOLPE) (setting [7]) is 40. The “Control of weed species IPOHE (100=total damage to plant; 0=no damage to plant)” value in [3] (setting [7]) turned out to be 30. In experiment [4] (setting [7]), the “Control of weed species AMAPA (100=total damage to plant; 0=no damage to plant)” value is 100. The “Control of weed species DIGSA (100=total damage to plant; 0=no damage to plant)” value in [6] worked out at 80. In the experiment on Eleusine indica (ELEIN) (setting [7]), the “Control of weed species ELEIN (100=total damage to plant; 0=no damage to plant)” value was 60.

Turning to `CCNC(=O)c1cc[n+](CCP(=O)(O)O)nc1` [Compound A119], the pest or weed control at 500 g/ha in experiment [1] (setting [7]) was 100%; in the experiment with Setaria faberi (SETFA) (setting [7]), 50%; in [5] (setting [7]) it was 30%; with Lolium perenne (LOLPE) (setting [7]), 20%; in experiment [2] (setting [7]) it was 80%; in [3] (setting [7]), 50%. Further, the pest or weed control at 500 g/ha in experiment [4] (setting [7]) came to 100%; in the experiment with Eleusine indica (ELEIN) (setting [7]) it was 30%.

In the case of `CC(=O)NNC(=O)c1cc[n+](CCC(=O)O)nc1` [Compound A105], the pest or weed control at 500 g/ha in experiment [1] (setting [7]) was 70%; in the experiment with Setaria faberi (SETFA) (setting [7]), 60%; in [5] (setting [7]), 40%; in the experiment with Lolium perenne (LOLPE) (setting [7]), 10%; in [2] (setting [7]), 60%; in experiment [3] (setting [7]), 30%. Moreover, the values for the pest or weed control at 500 g/ha (in experiment [4] (setting [7]); with Eleusine indica (ELEIN) (setting [7])) were 50% and 30%, respectively.

For `CNC(=O)c1cc[n+](CCS(=O)(=O)[O-])nc1-c1ccccc1` [Compound A54], the pest or weed control at 500 g/ha in [1] (setting [7]) came to 70%; with Setaria faberi (SETFA) (setting [7]), 20%; in experiment [5] (setting [7]), 40%; in the experiment with Lolium perenne (LOLPE) (setting [7]), 0%; in experiment [3] (setting [7]), 10%; in experiment [4] (setting [7]) it was 80%. Moreover, the pest or weed control at 500 g/ha in experiment [6] was 60%; in the experiment with Eleusine indica (ELEIN) (setting [7]), 50%.

As for `CCNC(=O)c1cc[n+](CCS(=O)(=O)[O-])nc1` [Compound A48], the pest or weed control at 500 g/ha in the experiment with Setaria faberi (SETFA) (setting [7]) was 90%; in experiment [5] (setting [7]), 70%; in the experiment on Lolium perenne (LOLPE) (setting [7]), 70%; in experiment [3] (setting [7]), 80%; in experiment [4] (setting [7]) it was 90%; in experiment [6] it was 90%. Besides, the pest or weed control at 500 g/ha in the experiment on Eleusine indica (ELEIN) (setting [7]) was found to be 100%.

For the molecule `CC(C)N(C)C(=O)c1cc[n+](CCS(=O)(=O)O)nc1` [Compound A9], the pest or weed control at 500 g/ha in [1] (setting [7]) is 90%; in the experiment with Setaria faberi (SETFA) (setting [7]), 60%; in experiment [5] (setting [7]), 30%; in the experiment on Lolium perenne (LOLPE) (setting [7]), 30%; in experiment [3] (setting [7]), 30%; in experiment [4] (setting [7]) it was 90%. In addition, the results for the pest or weed control at 500 g/ha (in experiment [6]; in the experiment on Eleusine indica (ELEIN) (setting [7])) were 50% and 20%, respectively.

For `O=C(NCCO)c1cc[n+](CCS(=O)(=O)[O-])nc1` [Compound A49], the pest or weed control at 500 g/ha stood at 80% in experiment [1] (setting [7]); 90% in the experiment with Setaria faberi (SETFA) (setting [7]); 80% in [5] (setting [7]); 60% in the experiment on Lolium perenne (LOLPE) (setting [7]); 70% in experiment [3] (setting [7]); 100% in [4] (setting [7]). The pest or weed control at 500 g/ha in experiment [6] worked out at 100%; with Eleusine indica (ELEIN) (setting [7]), 30%.

With `CCCCNC(=O)c1cc[n+](CCC(=O)O)nc1` [Compound A45], the pest or weed control at 500 g/ha was found to be 90% in [1] (setting [7]); 90% with Setaria faberi (SETFA) (setting [7]); 70% in [5] (setting [7]); 60% in the experiment on Lolium perenne (LOLPE) (setting [7]); 30% in experiment [3] (setting [7]); 80% in [4] (setting [7]). Moreover, the pest or weed control at 500 g/ha in [6] turned out to be 70%; in the experiment on Eleusine indica (ELEIN) (setting [7]), 80%.

Regarding `O=C(O)CC[n+]1ccc(C(=O)NC2CS(=O)(=O)C2)cn1` [Compound A67], the pest or weed control at 500 g/ha is 50% in [1] (setting [7]); 100% in the experiment on Setaria faberi (SETFA) (setting [7]); 100% in experiment [5] (setting [7]); 90% in the experiment on Lolium perenne (LOLPE) (setting [7]); 30% in experiment [3] (setting [7]); 30% in experiment [4] (setting [7]). The pest or weed control at 500 g/ha in experiment [6] was 100%; in the experiment on Eleusine indica (ELEIN) (setting [7]) it was 90%.

For the molecule `C#CC(C)(C)NC(=O)c1cc[n+](CCC(=O)O)nc1` [Compound A77], the pest or weed control at 500 g/ha in experiment [1] (setting [7]) amounted to 90%; with Setaria faberi (SETFA) (setting [7]), 100%; in the experiment with Lolium perenne (LOLPE) (setting [7]), 80%; in [2] (setting [7]) it was 100%; in experiment [3] (setting [7]) it was 10%; in experiment [4] (setting [7]), 100%.

Take `O=C(O)CC[n+]1ccc(C(=O)NC2CCCC2)cn1` [Compound A58]: the pest or weed control at 500 g/ha turned out to be 60% in experiment [1] (setting [7]); 90% in the experiment with Setaria faberi (SETFA) (setting [7]); 70% in experiment [5] (setting [7]); 90% with Lolium perenne (LOLPE) (setting [7]); 30% in experiment [3] (setting [7]); 70% in experiment [4] (setting [7]). Further, the pest or weed control at 500 g/ha (in experiment [6]; in the experiment on Eleusine indica (ELEIN) (setting [7])) was 90% throughout.

For the molecule `CCNC(=O)c1cc[n+](C[C@H](N)C(=O)O)nc1` [Compound A121, [(1S)-1-carboxy-2-[4-(ethylcarbamoyl)pyridazin-1-ium-1-yl]ethyl]ammonium 2,2,2-trifluoroacetate], the pest or weed control at 500 g/ha worked out at 20% in experiment [1] (post-emergence); 10% in the experiment on Setaria faberi (SETFA) (post-emergence); 10% in experiment [5] (post-emergence); 10% in the experiment on Lolium perenne (LOLPE) (post-emergence); 30% in experiment [2] (post-emergence); 10% in experiment [3] (post-emergence). Moreover, the pest or weed control at 500 g/ha (in experiment [4] (post-emergence); in the experiment with Eleusine indica (ELEIN) (post-emergence)) was 10% each time.

Take `CNC(=O)c1cc[n+](CCC(=O)O)nc1-c1ccccc1` [Compound A55]: the pest or weed control at 500 g/ha was determined as 80% in experiment [1] (setting [7]); 40% with Setaria faberi (SETFA) (setting [7]); 80% in experiment [5] (setting [7]); 0% in the experiment on Lolium perenne (LOLPE) (setting [7]); 40% in [3] (setting [7]); 100% in experiment [4] (setting [7]). The pest or weed control at 500 g/ha in experiment [6] worked out at 60%; with Eleusine indica (ELEIN) (setting [7]) it was 30%.
